Read-outs that look alike come from different tables or passages of the source.
What was measured:
[1] = test system: subcutaneously pentetrazol-injected model (scPTZ); test: Subcutaneously pentetrazol-injected model (scPTZ) test; assay type: in vivo, mice; details: for responders at 100 mg/kg / responders at 50 mg/kg: Mus musculus, po, 1 h; for anticonvulsant action in subcutaneously pentetrazol-injected model (scPTZ) test: mice, oral 50 or 100 mg/kg
Method in brief: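 Pentetrazol (85 mg/kg, s.c.) was injected one hour after oral test compound at 50 or 100 mg/kg in groups of three male Slc:ddY mice weighing 20-30 g; vehicle controls got 0.5% tragacanth or 0.5% methylcellulose.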

[2] = test system: maximum electroshock seizure (MES) model; test: Maximum electroshock seizure (MES) model test; assay type: in vivo, mice; details: for responders at 50 mg/kg / responders at 100 mg/kg: Mus musculus, po, 1 h; for responders at 50 mg/kg / responders at 100 mg/kg / MES (positive number/tested number): inhibition of hind limb extension; for anticonvulsant action in maximum electroshock seizure (MES) model test: mice, oral 50 or 100 mg/kg, 1 hour after administration
Method in brief: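 Tonic hind-limb extension was elicited by corneal electroshock (60 Hz, 25 mA, 0.2 s) 1 h after oral dosing. Test compounds were given at 50 or 100 mg/kg to groups of 3 male Slc: ddY mice (20-30 g), vehicle controls receiving 0.5% tragacanth or 0.5% methylcellulose solution.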

[3] = 100 mg/kg oral, Slc: ddY male mice, 3 per group, pentetrazol 85 mg/kg s.c. after 1 hour, observed 30 minutes for clonic convulsion, read-out: scPTZ (positive number/tested number) (converted)
[4] = 50 mg/kg oral, Slc: ddY male mice, 3 per group, electrical stimulation 1 hour after administration, read-out: MES (positive number/tested number) (converted)
[5] = 100 mg/kg oral, Slc: ddY male mice, 3 per group, electrical stimulation 1 hour after administration, read-out: MES (positive number/tested number) (converted)
[6] = 50 mg/kg oral, Slc: ddY male mice, 3 per group, pentetrazol 85 mg/kg s.c. after 1 hour, observed 30 minutes for clonic convulsion, read-out: scPTZ (positive number/tested number) (converted)
[7] = pentetrazol 85 mg/kg s.c. after 1 hour
[8] = 100 mg/kg oral, Slc: ddY male mice, 3 per group, pentetrazol 85 mg/kg s.c. after 1 hour, observed 30 minutes for clonic convulsion
[9] = 50 mg/kg oral, Slc: ddY male mice, 3 per group, electrical stimulation 1 hour after administration

CNC(=O)C(F)c1ccccc1-c1ccccc1 (centres unmarked) [Example 163]
responders at 100 mg/kg [1, 3]: 0%
responders at 50 mg/kg [2, 4]: 33.3%
responders at 100 mg/kg [2, 5]: 100%

NC(=O)C(O)c1ccccc1-c1cc(F)cc(Cl)c1 (centres unmarked) [Example 191, 2-(3′-chloro-5′-fluorobiphenyl-2-yl)-2-hydroxyacetamide]
responders at 50 mg/kg [1, 6]: 33.3%
responders at 100 mg/kg [1, 3]: 100%
responders at 50 mg/kg [2, 4]: 100%
responders at 100 mg/kg [2, 5]: 100%

NC(=O)Cc1cc(Cl)ccc1-c1cccc(F)c1 [Example 139]
responders at 100 mg/kg [1, 3]: 33.3%
responders at 100 mg/kg [2, 5]: 66.7%

CC(C(N)=O)c1ccccc1-c1cccc(Cl)c1 (centres unmarked) [Example 177]
responders at 100 mg/kg [1, 3]: 33.3%
responders at 100 mg/kg [2, 5]: 0%

CNC(=O)Cc1ccccc1-c1ccc(C(F)(F)F)cc1F [Example 97]
responders at 100 mg/kg [1, 3]: 33.3%
responders at 50 mg/kg [2, 4]: 33.3%
responders at 100 mg/kg [2, 5]: 66.7%

CNC(=O)Cc1ccccc1-c1cccc(F)c1 [Example 26, 2-(3′-fluorobiphenyl-2-yl)-N-methylacetamide]
responders at 100 mg/kg [1, 3]: 0%
responders at 50 mg/kg [2, 4]: 100%
responders at 100 mg/kg [2, 5]: 100%

NC(=O)Cc1ccccc1-c1cc(C(F)(F)F)ccc1F [Example 83, 2-[2′-fluoro-5′-(trifluoromethyl)biphenyl-2-yl]acetamide]
responders at 50 mg/kg [1, 6]: 33.3%
responders at 100 mg/kg [1, 3]: 66.7%
responders at 50 mg/kg [2, 4]: 0%
responders at 100 mg/kg [2, 5]: 66.7%

CNC(=O)Cc1ccccc1-c1ccc(C(F)(F)F)cc1 [Example 2, N-methyl-2-[4′-(trifluoromethyl)biphenyl-2-yl]acetamide]
responders at 100 mg/kg [1, 3]: 0%
responders at 50 mg/kg [2, 4]: 100%
responders at 100 mg/kg [2, 5]: 100%

NC(=O)Cc1cc(F)ccc1-c1ccc(Cl)cc1 [Example 131]
responders at 100 mg/kg [1, 3]: 0%
responders at 100 mg/kg [2, 5]: 100%

CNC(=O)Cc1ccccc1-c1ccccc1C(F)(F)F [Example 7, N-methyl-2-[2′-(trifluoromethyl)biphenyl-2-yl]acetamide]
responders at 50 mg/kg [1, 6]: 0%
responders at 100 mg/kg [1, 3]: 66.7%
responders at 50 mg/kg [2, 4]: 66.7%
responders at 100 mg/kg [2, 5]: 100%

CNC(=O)Cc1cc(F)ccc1-c1ccc(F)cc1 [Example 115, 2-(4,4′-difluorobiphenyl-2-yl)-N-methylacetamide]
responders at 100 mg/kg [1, 3]: 0%
responders at 50 mg/kg [2, 4]: 100%
responders at 100 mg/kg [2, 5]: 100%

COC(C(N)=O)c1ccccc1-c1cccc(Cl)c1 (centres unmarked) [Example 206, 2-(3′-chlorobiphenyl-2-yl)-2-methoxyacetamide]
responders at 50 mg/kg [1, 6]: 0%
responders at 100 mg/kg [1, 3]: 66.7%
responders at 50 mg/kg [2, 4]: 33.3%
responders at 100 mg/kg [2, 5]: 66.7%

NC(=O)Cc1c(F)cccc1-c1cccc(F)c1 [Example 140, 2-(3,3′-difluorobiphenyl-2-yl)acetamide]
responders at 50 mg/kg [1, 6]: 66.7%
responders at 100 mg/kg [1, 3]: 66.7%
anticonvulsant action in subcutaneously pentetrazol-injected model (scPTZ) test [1, 7]: anticonvulsant action was observed
responders at 50 mg/kg [2, 4]: 100%
responders at 100 mg/kg [2, 5]: 100%
anticonvulsant action in maximum electroshock seizure (MES) model test [2]: anticonvulsant action was observed

NC(=O)Cc1cc(F)ccc1-c1cccc(Cl)c1 [Example 48, 2-(3′-chloro-4-fluorobiphenyl-2-yl)acetamide]
responders at 50 mg/kg [1, 6]: 33.3%
responders at 100 mg/kg [1, 3]: 100%
responders at 50 mg/kg [2, 4]: 33.3%
responders at 100 mg/kg [2, 5]: 100%

NC(=O)Cc1cc(OC(F)(F)F)ccc1-c1ccccc1 [Example 34]
responders at 50 mg/kg [1, 6]: 33.3%
responders at 100 mg/kg [1, 3]: 66.7%
responders at 100 mg/kg [2, 5]: 0%

NC(=O)Cc1ccccc1-c1ccc(Cl)cc1 [Example 10]
responders at 100 mg/kg [1, 3]: 33.3%
responders at 50 mg/kg [2, 4]: 33.3%
responders at 100 mg/kg [2, 5]: 100%

NC(=O)Cc1cc(F)ccc1-c1ccccc1 [Example 44, 2-(4-fluorobiphenyl-2-yl)acetamide]
responders at 100 mg/kg [1, 3]: 0%
responders at 50 mg/kg [2, 4]: 100%
responders at 100 mg/kg [2, 5]: 100%

NC(=O)Cc1ccccc1-c1ccc(F)c(Cl)c1 [Example 65]
responders at 100 mg/kg [1, 3]: 33.3%
responders at 100 mg/kg [2, 5]: 66.7%

N#Cc1c(-c2ccccc2CC(N)=O)cccc1C(F)(F)F [Example 108]
responders at 100 mg/kg [1, 3]: 66.7%
responders at 100 mg/kg [2, 5]: 0%

NC(=O)Cc1ccccc1-c1cc(C(F)(F)F)cc(C(F)(F)F)c1 [Example 72]
responders at 100 mg/kg [1, 3]: 0%
responders at 100 mg/kg [2, 5]: 66.7%

CNC(=O)Cc1cc(F)c(F)cc1-c1cccc(F)c1 [Example 148]
responders at 100 mg/kg [1, 3]: 33.3%
responders at 100 mg/kg [2, 5]: 0%

NC(=O)C(F)c1ccccc1-c1cccc(Cl)c1 (centres unmarked) [Example 167, 2-(3′-chlorobiphenyl-2-yl)-2-fluoroacetamide]
responders at 50 mg/kg ([1]; read-out: scPTZ (positive number/tested number), 50 mg/kg oral, Slc: ddY male mice, 3 per group, pentetrazol 85 mg/kg s.c. after 1 hour, observed 30 minutes for clonic convulsion): 66.7%
responders at 100 mg/kg ([1]; read-out: scPTZ (positive number/tested number), 100 mg/kg oral, Slc: ddY male mice, 3 per group, pentetrazol 85 mg/kg s.c. after 1 hour, observed 30 minutes for clonic convulsion): 100%
responders at 50 mg/kg ([2]; read-out: MES (positive number/tested number), 50 mg/kg oral, Slc: ddY male mice, 3 per group, electrical stimulation 1 hour after administration): 33.3%
responders at 100 mg/kg ([2]; read-out: MES (positive number/tested number), 100 mg/kg oral, Slc: ddY male mice, 3 per group, electrical stimulation 1 hour after administration): 100%

NC(=O)Cc1ccccc1-c1cccc(Cl)c1Cl [Example 19]
responders at 100 mg/kg [1, 3]: 0%
responders at 50 mg/kg [2, 4]: 33.3%
responders at 100 mg/kg [2, 5]: 66.7%

NC(=O)Cc1ccc(F)cc1-c1cccc(F)c1 [Example 120]
responders at 100 mg/kg [1, 3]: 33.3%
responders at 50 mg/kg [2, 4]: 0%
responders at 100 mg/kg [2, 5]: 100%

CNC(=O)Cc1cc(Cl)ccc1-c1ccc(F)cc1 [Example 130]
responders at 100 mg/kg [1, 3]: 0%
responders at 100 mg/kg [2, 5]: 100%

NC(=O)C(F)c1ccccc1-c1cccc(F)c1 (centres unmarked) [Example 160, 2-fluoro-2-(3′-fluorobiphenyl-2-yl)acetamide]
responders at 50 mg/kg [1, 6]: 66.7%
responders at 100 mg/kg [1, 3]: 100%
responders at 50 mg/kg [2, 4]: 33.3%
responders at 100 mg/kg [2, 5]: 66.7%

NC(=O)Cc1ccccc1-c1cccc(OC(F)(F)F)c1 [Example 79, 2-[3′-(trifluoromethoxy)biphenyl-2-yl]acetamide]
responders at 50 mg/kg [1, 6]: 33.3%
responders at 100 mg/kg [1, 3]: 100%
responders at 50 mg/kg [2, 4]: 33.3%
responders at 100 mg/kg [2, 5]: 100%

NC(=O)Cc1ccccc1-c1cccc(F)c1F [Example 20, 2-(2′,3′-difluorobiphenyl-2-yl)acetamide]
responders at 50 mg/kg [1, 6]: 66.7%
responders at 100 mg/kg [1, 3]: 66.7%
anticonvulsant action in subcutaneously pentetrazol-injected model (scPTZ) test [1, 7]: anticonvulsant action was observed
responders at 50 mg/kg [2, 4]: 66.7%
responders at 100 mg/kg [2, 5]: 100%
anticonvulsant action in maximum electroshock seizure (MES) model test [2]: anticonvulsant action was observed

CNC(=O)Cc1cc(Cl)ccc1-c1ccccc1 [Example 36]
responders at 100 mg/kg [1, 3]: 33.3%
responders at 50 mg/kg [2, 4]: 0%
responders at 100 mg/kg [2, 5]: 100%

CNC(=O)Cc1ccccc1-c1ccc(OC(F)(F)F)cc1 [Example 103]
responders at 100 mg/kg [1, 3]: 33.3%
responders at 100 mg/kg [2, 5]: 100%

NC(=O)C(O)c1ccccc1-c1ccccc1F (single isomer, unassigned) [Example 214, 2-(2′-Fluorobiphenyl-2-yl)-2-hydroxyacetamide]
scPTZ (positive number/tested number) [1, 8]: 1/3
MES (positive number/tested number) [2, 9]: 2/3
MES (positive number/tested number) ([2]; 100 mg/kg oral, Slc: ddY male mice, 3 per group, electrical stimulation 1 hour after administration): 3/3

NC(=O)C(O)c1ccccc1-c1cc(F)cc(Cl)c1 (single isomer, unassigned) [Example 217, 2-(3′-Chloro-5′-fluorobiphenyl-2-yl)-2-hydroxyacetamide]
scPTZ (positive number/tested number) ([1]; 50 mg/kg oral, Slc: ddY male mice, 3 per group, pentetrazol 85 mg/kg s.c. after 1 hour, observed 30 minutes for clonic convulsion): 1/3
scPTZ (positive number/tested number) [1, 8]: 3/3
MES (positive number/tested number) [2, 9]: 2/3

CNC(=O)C(F)c1ccccc1-c1cccc(F)c1 (centres unmarked) [Example 161]
responders at 100 mg/kg [1, 3]: 0%
responders at 100 mg/kg [2, 5]: 66.7%

NC(=O)Cc1ccccc1-c1cc(F)cc(F)c1 [Example 153, 2-(3′,5′-difluorobiphenyl-2-yl)acetamide]
responders at 50 mg/kg [1, 6]: 0%
responders at 100 mg/kg [1, 3]: 100%
responders at 50 mg/kg [2, 4]: 0%
responders at 100 mg/kg [2, 5]: 66.7%
